Test system: MV-4-11 cells
Assay: Gene expression microarray analysis (Affymetrix PrimeView) and GSEA
Assay type: cell-based, human
Parameters: RFU PODN (11730768_x_at) / Fold change /veh PODN (11730768_x_at) / RFU LINC00158 (11744669_a_at) / Fold change /veh LINC00158 (11744669_a_at) / RFU DUSP10 (11751237_a_at) / Fold change /veh DUSP10 (11751237_a_at) / RFU ID3 (11757404_x_at) / Fold change /veh ID3 (11757404_x_at) / RFU PLEKHG5 (11737974_s_at) / Fold change /veh PLEKHG5 (11737974_s_at) / RFU LRRC4B (11730491_at) / Fold change /veh LRRC4B (11730491_at) / RFU GIMAP4 (11747438_a_at) / Fold change /veh GIMAP4 (11747438_a_at) / RFU KRT8 (11758183_x_at) / Fold change /veh KRT8 (11758183_x_at) / RFU CNN1 (11734310_a_at) / Fold change /veh CNN1 (11734310_a_at) / RFU VPS37D (11726825_at) / Fold change /veh VPS37D (11726825_at) / RFU C10orf10 (11716522_x_at) / Fold change /veh C10orf10 (11716522_x_at) / RFU KIR2DL2 /// KIR2DL4 /// KIR2DL5A /// KIR2DL5B /// KIR2DS1 /// KIR2DS2 /// KIR2DS3 /// KIR2DS4 /// KIR3DL3 /// KIR3DL3 /// KIR3DS1 (11738374_at) / Fold change /veh KIR2DL2 /// KIR2DL4 /// KIR2DL5A /// KIR2DL5B /// KIR2DS1 /// KIR2DS2 /// KIR2DS3 /// KIR2DS4 /// KIR3DL3 /// KIR3DL3 /// KIR3DS1 (11738374_at) / RFU C1QL1 (11718748_at) / Fold change /veh C1QL1 (11718748_at) / RFU TMPRSS4 (11747572_a_at) / Fold change /veh TMPRSS4 (11747572_a_at) / RFU HAMP (11756126_x_at) / Fold change /veh HAMP (11756126_x_at) / RFU RNFT2 (11725882_a_at) / Fold change /veh RNFT2 (11725882_a_at) / RFU NR4A2 (11747474_a_at) / Fold change /veh NR4A2 (11747474_a_at) / RFU ABCC12 (11746883_a_at) / Fold change /veh ABCC12 (11746883_a_at) / RFU TMEM136 (11760407_x_at) / Fold change /veh TMEM136 (11760407_x_at) / RFU CLDN22 /// WWC2 (11732394_at) / Fold change /veh CLDN22 /// WWC2 (11732394_at) / RFU HLA-DPB1 (11760878_x_at) / Fold change /veh HLA-DPB1 (11760878_x_at) / RFU SPINT1 (11716480_a_at) / Fold change /veh SPINT1 (11716480_a_at) / RFU GAP43 (11754022_s_at) / Fold change /veh GAP43 (11754022_s_at) / RFU A4GNT (11735810_at) / Fold change /veh A4GNT (11735810_at) / RFU PRB3 (11715151_x_at) / Fold change /veh PRB3 (11715151_x_at) / RFU TUBB4B (11761932_at) / Fold change /veh TUBB4B (11761932_at) / RFU CAPN14 (11732068_a_at) / Fold change /veh CAPN14 (11732068_a_at) / RFU TMCC2 (11721928_a_at) / Fold change /veh TMCC2 (11721928_a_at) / RFU IRGQ (11745062_a_at) / Fold change /veh IRGQ (11745062_a_at) / RFU FAM174B (11720279_a_at) / Fold change /veh FAM174B (11720279_a_at) / RFU TMPRSS4 (11748680_a_at) / Fold change /veh TMPRSS4 (11748680_a_at) / RFU FAM212B (11763350_a_at) / Fold change /veh FAM212B (11763350_a_at) / RFU PLEKHG5 (11743358_a_at) / Fold change /veh PLEKHG5 (11743358_a_at) / RFU ZSCAN30 (11745921_a_at) / Fold change /veh ZSCAN30 (11745921_a_at) / RFU CMKLR1 (11741424_a_at) / Fold change /veh CMKLR1 (11741424_a_at) / RFU LOC101060620 /// MAPK8IP1 (11723275_at) / Fold change /veh LOC101060620 /// MAPK8IP1 (11723275_at) / RFU SPTSSB (11747773_x_at) / Fold change /veh SPTSSB (11747773_x_at) / RFU PRSS12 (11739890_at) / Fold change /veh PRSS12 (11739890_at) / RFU BIN1 (11741810_x_at) / Fold change /veh BIN1 (11741810_x_at) / RFU WNT11 (11732464_a_at) / Fold change /veh WNT11 (11732464_a_at) / RFU C10orf10 (11716521_a_at) / Fold change /veh C10orf10 (11716521_a_at) / RFU C5orf56 (11738089_at) / Fold change /veh C5orf56 (11738089_at) / RFU CYB561 (11721691_x_at) / Fold change /veh CYB561 (11721691_x_at) / RFU ANKRD19P (11752326_a_at) / Fold change /veh ANKRD19P (11752326_a_at) / RFU OR2T12 /// OR2T33 /// OR2T8 (11738714_s_at) / Fold change /veh OR2T12 /// OR2T33 /// OR2T8 (11738714_s_at) / RFU VCAN (11748164_a_at) / Fold change /veh VCAN (11748164_a_at) / RFU JSRP1 (11732532_at) / Fold change /veh JSRP1 (11732532_at) / RFU KRTAP10-11 (11738290_x_at) / Fold change /veh KRTAP10-11 (11738290_x_at) / RFU MYO3A (11730013_a_at) / Fold change /veh MYO3A (11730013_a_at) / RFU EBF3 (11725865_a_at) / Fold change /veh EBF3 (11725865_a_at) / RFU CAMK2N1 (11719241_x_at) / Fold change /veh CAMK2N1 (11719241_x_at) / RFU C5orf56 (11738088_a_at) / Fold change /veh C5orf56 (11738088_a_at) / RFU OLFML3 (11715873_a_at) / Fold change /veh OLFML3 (11715873_a_at) / RFU LOC100653217 /// NTM (11731650_a_at) / Fold change /veh LOC100653217 /// NTM (11731650_a_at) / RFU MAPK11 (11762145_a_at) / Fold change /veh MAPK11 (11762145_a_at) / RFU FIZ1 (11724087_x_at) / Fold change /veh FIZ1 (11724087_x_at) / RFU OASL (11726364_x_at) / Fold change /veh OASL (11726364_x_at) / RFU SOX15 (11748057_x_at) / Fold change /veh SOX15 (11748057_x_at) / RFU CD79A (11719716_a_at) / Fold change /veh CD79A (11719716_a_at) / RFU HIST1H1D (11736915_at) / Fold change /veh HIST1H1D (11736915_at) / RFU CASKIN2 (11723855_a_at) / Fold change /veh CASKIN2 (11723855_a_at) / RFU LOC730098 (11760151_x_at) / Fold change /veh LOC730098 (11760151_x_at) / RFU OR4N2 (11742367_at) / Fold change /veh OR4N2 (11742367_at) / RFU PRRT2 (11749266_a_at) / Fold change /veh PRRT2 (11749266_a_at) / RFU SNX32 (11753110_a_at) / Fold change /veh SNX32 (11753110_a_at) / RFU CDHR5 (11726645_a_at) / Fold change /veh CDHR5 (11726645_a_at) / RFU RCAN1 (11760418_a_at) / Fold change /veh RCAN1 (11760418_a_at) / RFU FAM167A (11723789_a_at) / Fold change /veh FAM167A (11723789_a_at) / RFU FAM26E (11764081_at) / Fold change /veh FAM26E (11764081_at) / RFU ISYNA1 (11749810_s_at) / Fold change /veh ISYNA1 (11749810_s_at) / RFU ACY1 (11761880_at) / Fold change /veh ACY1 (11761880_at) / RFU 11764098_at / Fold change /veh 11764098_at / RFU SAMD14 (11745864_x_at) / Fold change /veh SAMD14 (11745864_x_at) / RFU NPB (11741838_a_at) / Fold change /veh NPB (11741838_a_at) / RFU TMPRSS6 (11731388_a_at) / Fold change /veh TMPRSS6 (11731388_a_at) / RFU KRTAP10-2 (11738614_at) / Fold change /veh KRTAP10-2 (11738614_at) / RFU ARHGAP8 /// PRR5-ARHGAP8 (11727945_x_at) / Fold change /veh ARHGAP8 /// PRR5-ARHGAP8 (11727945_x_at) / RFU KRTAP5-7 /// NADSYN1 (11734609_at) / Fold change /veh KRTAP5-7 /// NADSYN1 (11734609_at) / RFU RASL12 (11751679_a_at) / Fold change /veh RASL12 (11751679_a_at) / RFU CDKN2B (11736163_a_at) / Fold change /veh CDKN2B (11736163_a_at) / RFU PRF1 (11729649_at) / Fold change /veh PRF1 (11729649_at) / RFU, ZNF638 /// ZNF638-IT1 / Fold change vs veh, ZNF638 /// ZNF638-IT1 / RFU, PANK3 / Fold change vs veh, PANK3 / RFU, SH3YL1 / Fold change vs veh, SH3YL1 / RFU, ZEB2 / Fold change vs veh, ZEB2 / RFU, NRIP1 / Fold change vs veh, NRIP1 / RFU, PTTG1IP / Fold change vs veh, PTTG1IP / RFU, CAPN2 / Fold change vs veh, CAPN2 / RFU, MED14 / Fold change vs veh, MED14 / RFU, SNORA58 / Fold change vs veh, SNORA58 / RFU, C1orf63 / Fold change vs veh, C1orf63 / RFU, LRRFIP1 / Fold change vs veh, LRRFIP1 / RFU, NDUFAF7 / Fold change vs veh, NDUFAF7 / RFU, SLC12A2 / Fold change vs veh, SLC12A2 / RFU, IBTK / Fold change vs veh, IBTK / RFU, ESF1 / Fold change vs veh, ESF1 / Fold change vs veh, TMEM50B / RFU, TAOK1 / Fold change vs veh, TAOK1 / RFU, ACBD3 / Fold change vs veh, ACBD3 / RFU, TMA16 / Fold change vs veh, TMA16 / RFU, RWDD3 / Fold change vs veh, RWDD3 / RFU, BCAT1 / Fold change vs veh, BCAT1 / RFU, EDEM3 / Fold change vs veh, EDEM3 / RFU, TMEM33 / Fold change vs veh, TMEM33 / RFU, WDR75 / Fold change vs veh, WDR75 / RFU, AHCTF1 / Fold change vs veh, AHCTF1 / RFU, TFRC / Fold change vs veh, TFRC / RFU, ZDHHC17 / Fold change vs veh, ZDHHC17 / RFU, NOM1 / Fold change vs veh, NOM1 / RFU, ARL8B / Fold change vs veh, ARL8B / RFU, ZBTB11 / Fold change vs veh, ZBTB11 / RFU, TAMM41 / Fold change vs veh, TAMM41 / RFU, KIAA1704 /// LOC100996395 / Fold change vs veh, KIAA1704 /// LOC100996395 / RFU, ING1 / Fold change vs veh, ING1 / RFU, TRMT61B / Fold change vs veh, TRMT61B / RFU, FUBP3 / Fold change vs veh, FUBP3 / RFU, TP53 / Fold change vs veh, TP53 / RFU, TNKS2 / Fold change vs veh, TNKS2 / RFU, ZFP14 / Fold change vs veh, ZFP14 / RFU, ACTR2 / Fold change vs veh, ACTR2 / RFU, PPP3R1 / Fold change vs veh, PPP3R1 / RFU, PIK3R1 / Fold change vs veh, PIK3R1 / RFU, HNRNPA1 / Fold change vs veh, HNRNPA1 / RFU, RNF170 / Fold change vs veh, RNF170 / RFU, ZNF28 / Fold change vs veh, ZNF28 / RFU, RNGTT / Fold change vs veh, RNGTT / RFU, OGT / Fold change vs veh, OGT / RFU, BRD1 / Fold change vs veh, BRD1 / RFU, MARS / Fold change vs veh, MARS / RFU, ZNF655 / Fold change vs veh, ZNF655 / RFU, FAHD1 / Fold change vs veh, FAHD1 / RFU, BDP1 / Fold change vs veh, BDP1 / RFU, LRRCC1 / Fold change vs veh, LRRCC1 / RFU, ARID1A / Fold change vs veh, ARID1A / RFU, ZNF146 / Fold change vs veh, ZNF146 / RFU, ZNF330 / Fold change vs veh, ZNF330 / RFU, GPN3 / Fold change vs veh, GPN3 / RFU, C9orf123 / Fold change vs veh, C9orf123 / RFU, N4BP2L2 / Fold change vs veh, N4BP2L2 / RFU, ARFIP1 / Fold change vs veh, ARFIP1 / RFU, FAM179B / Fold change vs veh, FAM179B / RFU, BCL10 / Fold change vs veh, BCL10 / RFU, UHRF1BP1L / Fold change vs veh, UHRF1BP1L / RFU, BET1 / Fold change vs veh, BET1 / RFU, CNOT2 / Fold change vs veh, CNOT2 / RFU, ZNF268 / Fold change vs veh, ZNF268 / Fold change vs veh, ZNF507 / RFU, DGCR2 / Fold change vs veh, DGCR2 / RFU, WDSUB1 / Fold change vs veh, WDSUB1 / Fold change vs veh, HSP90B1 /// MIR3652 / RFU, ADSS / Fold change vs veh, ADSS / RFU, GK / Fold change vs veh, GK / RFU, ZNF148 / Fold change vs veh, ZNF148 / RFU, TAF9 / Fold change vs veh, TAF9 / RFU, SLC1A5 / Fold change vs veh, SLC1A5 / RFU, SLMO2 / Fold change vs veh, SLMO2 / RFU, ABCC4 / Fold change vs veh, ABCC4 / RFU, LOC101060439 /// RAP1B / Fold change vs veh, LOC101060439 /// RAP1B / RFU, RFX7 / Fold change vs veh, RFX7 / RFU, GTPBP10 / Fold change vs veh, GTPBP10 / RFU, CNEP1R1 / Fold change vs veh, CNEP1R1 / RFU, BIVM-ERCC5 /// ERCC5 / Fold change vs veh, BIVM-ERCC5 /// ERCC5 / RFU, ILF3 / Fold change vs veh, ILF3 / RFU 11762660_at / Fold change /veh 11762660_at / RFU VCAN (11757783_s_at) / Fold change /veh VCAN (11757783_s_at) / RFU DDX43 (11728927_at) / Fold change /veh DDX43 (11728927_at) / RFU KRT8 (11758188_x_at) / Fold change /veh KRT8 (11758188_x_at) / RFU NKD1 (11759106_at) / Fold change /veh NKD1 (11759106_at) / RFU SRD5A1 (11742802_a_at) / Fold change /veh SRD5A1 (11742802_a_at) / RFU TPSAB1 /// TPSB2 (11721975_s_at) / Fold change /veh TPSAB1 /// TPSB2 (11721975_s_at) / RFU GSTM3 (11746129_a_at) / Fold change /veh GSTM3 (11746129_a_at) / RFU IL23R (11737362_x_at) / Fold change /veh IL23R (11737362_x_at) / RFU TMEM51 (11727254_a_at) / Fold change /veh TMEM51 (11727254_a_at) / RFU PIWIL2 (11732686_x_at) / Fold change /veh PIWIL2 (11732686_x_at) / RFU ORM1 (11744905_x_at) / Fold change /veh ORM1 (11744905_x_at) / RFU CCDC152 (11743942_at) / Fold change /veh CCDC152 (11743942_at) / RFU ECM1 (11717891_a_at) / Fold change /veh ECM1 (11717891_a_at) / RFU IL23R (11748794_a_at) / Fold change /veh IL23R (11748794_a_at) / RFU TNFAIP8L3 (11732012_x_at) / Fold change /veh TNFAIP8L3 (11732012_x_at) / RFU MBOAT4 (11741988_at) / Fold change /veh MBOAT4 (11741988_at) / RFU 11764193_at / Fold change /veh 11764193_at / RFU TMEM53 (11763286_at) / Fold change /veh TMEM53 (11763286_at) / RFU MAGEB2 (11727129_at) / Fold change /veh MAGEB2 (11727129_at) / RFU TMEM200A (11744735_a_at) / Fold change /veh TMEM200A (11744735_a_at) / RFU CCDC152 (11751479_a_at) / Fold change /veh CCDC152 (11751479_a_at) / RFU FAM211A (11726209_a_at) / Fold change /veh FAM211A (11726209_a_at) / RFU RGS16 (11746705_a_at) / Fold change /veh RGS16 (11746705_a_at) / RFU VCAN (11755009_s_at) / Fold change /veh VCAN (11755009_s_at) / RFU RHOB (11743442_s_at) / Fold change /veh RHOB (11743442_s_at) / RFU RGS16 (11720943_a_at) / Fold change /veh RGS16 (11720943_a_at) / RFU RGS16 (11720944_at) / Fold change /veh RGS16 (11720944_at) / RFU, VPS4B / Fold change vs veh, VPS4B / RFU, CREB1 / Fold change vs veh, CREB1 / RFU, DNAJC13 / Fold change vs veh, DNAJC13 / RFU, GNAQ / Fold change vs veh, GNAQ / RFU, CDK5R1 / Fold change vs veh, CDK5R1 / RFU, ZRANB3 / Fold change vs veh, ZRANB3 / RFU, CUL4A / Fold change vs veh, CUL4A / RFU, CCNY / Fold change vs veh, CCNY / RFU, UFL1 / Fold change vs veh, UFL1 / RFU, COG3 / Fold change vs veh, COG3 / RFU, DIAPH2 / Fold change vs veh, DIAPH2 / RFU, SKA2 / Fold change vs veh, SKA2 / RFU, AFF3 / Fold change vs veh, AFF3 / RFU, LMF1 / Fold change vs veh, LMF1 / RFU, IPO11 / Fold change vs veh, IPO11 / RFU, DFFB / Fold change vs veh, DFFB / RFU, FOXP1 / Fold change vs veh, FOXP1 / RFU, CARD8 / Fold change vs veh, CARD8 / RFU, STRN3 / Fold change vs veh, STRN3 / RFU, ADK / Fold change vs veh, ADK / RFU, RASSF2 / Fold change vs veh, RASSF2 / RFU, WIPF1 / Fold change vs veh, WIPF1 / RFU, LARP1B / Fold change vs veh, LARP1B / RFU, RASA1 / Fold change vs veh, RASA1 / RFU, RB1 / Fold change vs veh, RB1 / RFU, PPFIA1 / Fold change vs veh, PPFIA1 / RFU, MAT2A / Fold change vs veh, MAT2A / RFU, CCT5 / Fold change vs veh, CCT5 / RFU, WDR92 / Fold change vs veh, WDR92 / RFU, CUX1 / Fold change vs veh, CUX1 / RFU, TTC7A / Fold change vs veh, TTC7A / RFU, TMEM135 / Fold change vs veh, TMEM135 / RFU, DEPTOR / Fold change vs veh, DEPTOR / RFU, CPM / Fold change vs veh, CPM / RFU, DNAJB6 / Fold change vs veh, DNAJB6 / RFU, CACNA2D3 / Fold change vs veh, CACNA2D3 / RFU, DTX4 / Fold change vs veh, DTX4 / RFU, TFCP2 / Fold change vs veh, TFCP2 / RFU, GMCL1 /// GMCL1P1 / Fold change vs veh, GMCL1 /// GMCL1P1 / RFU, AEBP2 / Fold change vs veh, AEBP2 / RFU, SNHG1 /// SNORD22 /// SNORD25 /// SNORD26 /// SNORD27 /// SNORD28 /// SNORD29 /// SNORD31 / Fold change vs veh, SNHG1 /// SNORD22 /// SNORD25 /// SNORD26 /// SNORD27 /// SNORD28 /// SNORD29 /// SNORD31 / Fold change (Aza/veh), C12orf56 (ProbeSet 11735607_a_at) / Fold change (ACY-1035/veh), C12orf56 (ProbeSet 11735607_a_at) / Fold change (Aza/veh), FGFR1OP (ProbeSet 11751329_s_at) / Fold change (ACY-1035/veh), FGFR1OP (ProbeSet 11751329_s_at) / Fold change (Aza/veh), VPS36 (ProbeSet 11739960_a_at) / Fold change (ACY-1035/veh), VPS36 (ProbeSet 11739960_a_at) / RFU SYPL1 (11715823_x_at) / Fold change /veh SYPL1 (11715823_x_at) / RFU IGFBP7 (11715501_s_at) / Fold change /veh IGFBP7 (11715501_s_at) / RFU REEP3 (11722064_at) / Fold change /veh REEP3 (11722064_at) / RFU IGLL1 (11728026_x_at) / Fold change /veh IGLL1 (11728026_x_at): dose or concentration left out as unconfirmed
Conditions: MV-4-11 cells, 48 hours

Nc1ccc(-c2cccs2)cc1NC(=O)c1ccc2c(c1)cc(C1CC1)n2CCN1CCOCC1 [ACY-1035]
RFU GAP43 (11754022_s_at): 68.94 RFU

— paper PMC5218480 (PLoS ONE, 2017)
